Laboratory results reported in PMC12340957, “Interactions between Lipopolysaccharide and Peptide Bacteriocin BacSp222 Influence Their Biological Activities” (ACS Infectious Diseases, 2025).
Ends that are not written are not given here. * marks the point of attachment. For = O=C*

B1: colicin N: protein bacteriocin whose receptor-binding domain binds to LPS (protein, UniProt P08083 1-387, looked up)
Colicin-N: MGSNGADNAHNNAFGGGKNPGIGNTSGAGSNGSASSNRGNSNGWSWSNKPHKNDGFHSDGSYHITFHGDNNSKPKPGGNSGNRGNNGDGASAKVGEITITPDNSKPGRYISSNPEYSLLAKLIDAESIKGTEVYTFHTRKGQYVKVTVPDSNIDKMRVDYVNWKGPKYNNKLVKRFVSQFLLFRKEEKEKNEKEALLKASELVSGMGDKLGEYLGVKYKNVAKEVANDIKNFHGRNIRSYNEAMASLNKVLANPKMKVNKSDKDAIVNAWKQVNAKDMANKIGNLGKAFKVADLAIKVEKIREKSIEGYNTGNWGPLLLEVESWIIGGVVAGVAISLFGAVLSFLPISGLAVTALGVIGIMTISYLSSFIDANRVSNINNIISSVIR
B2: BacSp222 bacteriocin (peptide)
chain: For-MAGLLRFLLSKGRALYNWAKSHVGKVWEWLKSGATYEQIKEWIENALGWR
notes: molecular mass 5.922 kDa; also called peptide BacSp222

Experiments:
[1] = literature statement; ref number not given; cited from earlier work
Text: Regarding factors produced by bacteria, the canonical example of molecules interacting with LPS are polymyxins. […] Polymyxins are effective antibacterial drugs that interact with LPS in the outer and inner membranes of the cell wall, ultimately causing a lethal effect. […] Colicins, a family of protein bacteriocins produced by , typically must cross the bacterial outer membrane to display bactericidal activity. Most colicins use porins and high-affinity receptors to cross the outer membrane and kill the target. However, for colicin N, there is no such high-affinity receptor, and this bacteriocin targets LPS instead. The receptor-binding domain of ColN binds to LPS near the membrane surface, and this interaction is required for its bactericidal activity. || Nisin, a peptide lantibiotic produced by , is another example of a bacteriocin that could utilize LPS as a receptor. […] The interaction described above leads to membrane disruption. The level of membrane disruption is related to the origin of the bacteria and the type of LPS as its rough type is more susceptible to nisin.

[2] = system: TLR4; conditions: literature statement; ref number not given; cited from earlier work
Text: Proteins and peptides capable of recognizing and binding LPS as well as altering its biological activity are present in both higher organisms and bacteria. In higher organisms, these polypeptides are most often involved in the immune response. One of the best-known examples is LPS-binding protein (LBP). It is an acute-phase plasma protein of mammals that forms a complex with LPS, and this complex then binds to CD14 (cluster of differentiation 14). This event initiates a signaling pathway through TLR4/MD-2 and triggers the activation of immune response. , In the absence of TLR4, MD-2 can also i ... || Regarding factors produced by bacteria, the canonical example of molecules interacting with LPS are polymyxins. […] Polymyxins are effective antibacterial drugs that interact with LPS in the outer and inner membranes of the cell wall, ultimately causing a lethal effect.

[3] = biological target: the molecule itself; test: dynamic light scattering; BacSp222 alone at 5, 50 and 500 μg/mL in PBS without Ca2+ and Mg2+, incubated 15 min at 37 °C, measured at 37 °C (Prometheus Panta); performed once

| Molecule | interaction with LPS [1] | inhibition of LPS-induced TLR4 activation [2] | binding result [3] |
| --- | --- | --- | --- |
| Nisin | forms a molecular complex in model membranes and bacterial outer membrane extracts | – | – |
| polymyxins [reference compound] | high affinity to LPS | effectively block the biological effects of LPS, including TLR4 activation | – |
| B1 | targets LPS | – | – |
| B2 | – | – | binds |
